{"source": "patent US20240166693A1", "about": "“METHODS AND COMPOUNDS FOR MODULATING MYOTONIC DYSTROPY 1” (Design Therapeutics, Inc., priority 2020, published 2024)", "data": [{"test_system": "Myotonic Dystrophy 1 affected patient fibroblasts (Coriell GM04602; 1600 CTG repeats)", "assay": "DM1 foci reduction assay (CAG10-Cy3 FISH, average foci per nucleus)", "format": "cell-based", "conditions": "Homo sapiens, Fibroblast, 48 h, read-out: Foci Reduction in Fibroblast EC50, 48 h (nM)", "how_it_was_run": "(§1)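 Read-out is mean nuclear foci per well from CAG10-Cy3 FISH (5 nM probe, overnight 37 °C) with DAPI nuclei, 4 fields per well at 20×. Compounds ran 48 h in 8-point, 3-fold series topping at 3 μM on 1600-CTG GM04602 fibroblasts, alongside GM07492 wild-type cells.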", "units": {"EC50": "nM"}, "values": [{"compound": "CC(C)C[C@H](NC(=O)[C@H](Cc1ccccc1)NC(=O)[C@H](CCCCN(C)C(C)C)NC(=O)[C@@H]1C[C@@H]2CCCC[C@@H]2N1)C(=O)NCCOCCOCCOCCOCCOCCNC(=O)CCNC(=O)c1nc(NC(=O)c2cc(NC(=O)CCNC(=O)c3nc(NC(=O)CCCNC(=O)c4cc(NC(=O)c5nc(NC(=O)CCNC(=O)c6cc(NC(=O)c7nccn7C)cn6C)cn5C)cn4C)cn3C)cn2C)cn1C", "note": "[Compound 145]", "EC50": "100 to 500"}, {"compound": "CC(C)CN(CCCC[C@H](NC(=O)[C@H](CCCN1CCOCC1)NC(=O)[C@@H](NC(=O)[C@H](Cc1ccccc1)NC(=O)c1ccc(C(C)(C)C)cc1)C1CCC1)C(=O)N[C@@H](CO)C(=O)NCCOCCOCCOCCOCCOCCNC(=O)CCNC(=O)c1nc(NC(=O)c2cc(NC(=O)CCNC(=O)c3nc(NC(=O)CCCNC(=O)c4cc(NC(=O)c5nc(NC(=O)CCNC(=O)c6cc(NC(=O)c7nccn7C)cn6C)cn5C)cn4C)cn3C)cn2C)cn1C)C1CC2CCC1C2", "note": "(stereo partly drawn) [Compound 148]", "EC50": "> 500"}, {"compound": "CN(CCCC[C@H](NC(=O)[C@H](CCCN1CCOCC1)NC(=O)[C@@H](NC(=O)[C@H](Cc1ccccc1)NC(=O)c1ccc(C(C)(C)C)cc1)C1CCC1)C(=O)N[C@@H](CO)C(=O)NCCOCCOCCOCCOCCOCCNC(=O)CCNC(=O)c1nc(NC(=O)c2cc(NC(=O)CCNC(=O)c3nc(NC(=O)CCCNC(=O)c4cc(NC(=O)c5nc(NC(=O)CCNC(=O)c6cc(NC(=O)c7nccn7C)cn6C)cn5C)cn4C)cn3C)cn2C)cn1C)C1CC2CCC1C2", "note": "(stereo partly drawn) [Compound 149]", "EC50": "100 to 500"}, {"compound": "CCN(CC)CCCC[C@H](NC(=O)COCCNC(=O)c1cnn(-c2ccc(C(C)(C)C)cc2)c1)C(=O)N[C@@H](CO)C(=O)NCCOCCOCCOCCOCCOCCNC(=O)CCNC(=O)c1nc(NC(=O)c2cc(NC(=O)CCNC(=O)c3nc(NC(=O)CCCNC(=O)c4cc(NC(=O)c5nc(NC(=O)CCNC(=O)c6cc(NC(=O)c7nccn7C)cn6C)cn5C)cn4C)cn3C)cn2C)cn1C", "note": "[Compound 150]", "EC50": "> 500"}, {"compound": "CCN(CC)CCCC[C@H](NC(=O)CCCCNC(=O)c1cnn(-c2ccc(C(C)(C)C)cc2)c1)C(=O)N[C@@H](CO)C(=O)NCCOCCOCCOCCOCCOCCNC(=O)CCNC(=O)c1nc(NC(=O)c2cc(NC(=O)CCNC(=O)c3nc(NC(=O)CCCNC(=O)c4cc(NC(=O)c5nc(NC(=O)CCNC(=O)c6cc(NC(=O)c7nccn7C)cn6C)cn5C)cn4C)cn3C)cn2C)cn1C", "note": "[Compound 151]", "EC50": "> 500"}, {"compound": "CCN(CC)CCCC[C@H](NC(=O)Cc1nc2cc(CC(=O)Nc3ccc(C(C)(C)C)cc3)cnc2[nH]1)C(=O)N[C@@H](CO)C(=O)NCCOCCOCCOCCOCCOCCNC(=O)CCNC(=O)c1nc(NC(=O)c2cc(NC(=O)CCNC(=O)c3nc(NC(=O)CCCNC(=O)c4cc(NC(=O)c5nc(NC(=O)CCNC(=O)c6cc(NC(=O)c7nccn7C)cn6C)cn5C)cn4C)cn3C)cn2C)cn1C", "note": "[Compound 152]", "EC50": "100 to 500"}, {"compound": "CCN(CC)CCCC[C@H](NC(=O)N1CC(c2cnc(CNC(=O)c3ccc(C(C)(C)C)cc3)[nH]2)C1)C(=O)N[C@@H](CO)C(=O)NCCOCCOCCOCCOCCOCCNC(=O)CCNC(=O)c1nc(NC(=O)c2cc(NC(=O)CCNC(=O)c3nc(NC(=O)CCCNC(=O)c4cc(NC(=O)c5nc(NC(=O)CCNC(=O)c6cc(NC(=O)c7nccn7C)cn6C)cn5C)cn4C)cn3C)cn2C)cn1C", "note": "[Compound 155]", "EC50": "100 to 500"}, {"compound": "CCN(CC)CCCC[C@H](NC(=O)OC(C)(C)C)C(=O)N[C@@H](CO)C(=O)NCCOCCOCCOCCOCCOCCNC(=O)CCNC(=O)c1nc(NC(=O)c2cc(NC(=O)CCNC(=O)c3nc(NC(=O)CCCNC(=O)c4cc(NC(=O)c5nc(NC(=O)CCNC(=O)c6cc(NC(=O)c7nccn7C)cn6C)cn5C)cn4C)cn3C)cn2C)cn1C", "note": "[Compound 157]", "EC50": "100 to 500"}]}, {"test_system": "Myotonic Dystrophy 1 affected patient fibroblasts (Coriell GM04602; 1600 CTG repeats)", "assay": "DM1 foci reduction assay (CAG10-Cy3 FISH, average foci per nucleus)", "format": "cell-based", "conditions": "Homo sapiens, Fibroblast; DM1 fibroblasts, 48 h treatment, 8-point dose response, 3 μM top dose; read-out: Foci Reduction in Fibroblast EC50, 48 h", "how_it_was_run": "as §1", "units": {"EC50": "nM"}, "values": [{"compound": "CN(C)[C@H]1CN(C2CCc3cccc(F)c32)C[C@@H]1c1ccc(N2CCN(C(=O)COCCOCCOCCOCCOCCNC(=O)CCNC(=O)c3nc(NC(=O)c4cc(NC(=O)CCNC(=O)c5nc(NC(=O)CCCNC(=O)c6cc(NC(=O)c7nc(NC(=O)CCNC(=O)c8cc(NC(=O)c9nccn9C)cn8C)cn7C)cn6C)cn5C)cn4C)cn3C)CC2)cc1", "note": "(stereo partly drawn) [Compound 146]", "EC50": "> 500"}, {"compound": "CN(C)[C@H]1CN(C2CCc3cccc(F)c32)C[C@@H]1c1ccc(N2CCN(S(=O)(=O)CCOCCOCCOCCOCCOCCNC(=O)CCNC(=O)c3nc(NC(=O)c4cc(NC(=O)CCNC(=O)c5nc(NC(=O)CCCNC(=O)c6cc(NC(=O)c7nc(NC(=O)CCNC(=O)c8cc(NC(=O)c9nccn9C)cn8C)cn7C)cn6C)cn5C)cn4C)cn3C)CC2)cc1", "note": "(stereo partly drawn) [Compound 147]", "EC50": "> 500"}, {"compound": "CCN(CC)CCCCCC(=O)NCC(=O)NCCOCCOCCOCCOCCOCCNC(=O)CCNC(=O)c1nc(NC(=O)c2cc(NC(=O)CCNC(=O)c3nc(NC(=O)CCCNC(=O)c4cc(NC(=O)c5nc(NC(=O)CCNC(=O)c6cc(NC(=O)c7nccn7C)cn6C)cn5C)cn4C)cn3C)cn2C)cn1C", "note": "[Compound 158]", "EC50": "> 500"}, {"compound": "COc1c(OCCOCCOCCOCCOCCOCCNC(=O)CCNC(=O)c2nc(NC(=O)c3cc(NC(=O)CCNC(=O)c4nc(NC(=O)CCCNC(=O)c5cc(NC(=O)c6nc(NC(=O)CCNC(=O)c7cc(NC(=O)c8nccn8C)cn7C)cn6C)cn5C)cn4C)cn3C)cn2C)cccc1C(=O)N1CCN(C(=O)COc2cccc(OCCNC(=O)CNC(=O)c3ccc(C(C)(C)C)cc3)c2)CC1", "note": "[Compound 159]", "EC50": "100 to 500"}, {"compound": "CCN(CCN(C)CCOCCOCCOCCOCCOCCNC(=O)CCNC(=O)c1nc(NC(=O)c2cc(NC(=O)CCNC(=O)c3nc(NC(=O)CCCNC(=O)c4cc(NC(=O)c5nc(NC(=O)CCNC(=O)c6cc(NC(=O)c7nccn7C)cn6C)cn5C)cn4C)cn3C)cn2C)cn1C)C(=O)CNCc1cc(C(N)=O)ccn1", "note": "[Compound 163]", "EC50": "> 500"}, {"compound": "CCN(c1cc(-c2ccc(CN3CCN(CCCCCCCNC(=O)CCNC(=O)c4nc(NC(=O)c5cc(NC(=O)CCNC(=O)c6nc(NC(=O)CCCNC(=O)c7cc(NC(=O)c8nc(NC(=O)CCNC(=O)c9cc(NC(=O)c%10nccn%10C)cn9C)cn8C)cn7C)cn6C)cn5C)cn4C)CC3)cc2)cc(C(=O)NCc2c(C)cc(C)[nH]c2=O)c1C)C1CCOCC1", "note": "[Compound 164]", "EC50": "> 500"}, {"compound": "CCN(c1cc(-c2ccc(CN3CCN(CCOCCOCCNC(=O)CCNC(=O)c4nc(NC(=O)c5cc(NC(=O)CCNC(=O)c6nc(NC(=O)CCCNC(=O)c7cc(NC(=O)c8nc(NC(=O)CCNC(=O)c9cc(NC(=O)c%10nccn%10C)cn9C)cn8C)cn7C)cn6C)cn5C)cn4C)CC3)cc2)cc(C(=O)NCc2c(C)cc(C)[nH]c2=O)c1C)C1CCOCC1", "note": "[Compound 165]", "EC50": "> 500"}, {"compound": "CCN(c1cc(-c2ccc(CN3CCN(CCOCCOCCOCCOCCOCCNC(=O)CCNC(=O)c4nc(NC(=O)c5cc(NC(=O)CCNC(=O)c6nc(NC(=O)CCCNC(=O)c7cc(NC(=O)c8nc(NC(=O)CCNC(=O)c9cc(NC(=O)c%10nccn%10C)cn9C)cn8C)cn7C)cn6C)cn5C)cn4C)CC3)cc2)cc(C(=O)NCc2c(C)cc(C)[nH]c2=O)c1C)C1CCOCC1", "note": "[Compound 166]", "EC50": "> 500"}, {"compound": "CCN(c1cc(-c2ccc(CN3CCN(CCOCCOCCOCCOCCOCCOCCOCCOCCOCCOCCNC(=O)CCNC(=O)c4nc(NC(=O)c5cc(NC(=O)CCNC(=O)c6nc(NC(=O)CCCNC(=O)c7cc(NC(=O)c8nc(NC(=O)CCNC(=O)c9cc(NC(=O)c%10nccn%10C)cn9C)cn8C)cn7C)cn6C)cn5C)cn4C)CC3)cc2)cc(C(=O)NCc2c(C)cc(C)[nH]c2=O)c1C)C1CCOCC1", "note": "[Compound 167]", "EC50": "> 500"}, {"compound": "CC(=O)c1cc(-c2ccccc2S(C)(=O)=O)c2cc(OCCOCCOCCNC(=O)CCNC(=O)c3nc(NC(=O)c4cc(NC(=O)CCNC(=O)c5nc(NC(=O)CCCNC(=O)c6cc(NC(=O)c7nc(NC(=O)CCNC(=O)c8cc(NC(=O)c9nccn9C)cn8C)cn7C)cn6C)cn5C)cn4C)cn3C)ccn12", "note": "[Compound 168]", "EC50": "> 500"}, {"compound": "CC(=O)c1cc(-c2ccccc2S(C)(=O)=O)c2cc(OCCOCCOCCOCCOCCOCCNC(=O)CCNC(=O)c3nc(NC(=O)c4cc(NC(=O)CCNC(=O)c5nc(NC(=O)CCCNC(=O)c6cc(NC(=O)c7nc(NC(=O)CCNC(=O)c8cc(NC(=O)c9nccn9C)cn8C)cn7C)cn6C)cn5C)cn4C)cn3C)ccn12", "note": "[Compound 169]", "EC50": "> 500"}, {"compound": "CC(=O)c1cc(-c2ccccc2S(C)(=O)=O)c2cc(OCCOCCOCCOCCOCCOCCOCCOCCOCCOCCOCCNC(=O)CCNC(=O)c3nc(NC(=O)c4cc(NC(=O)CCNC(=O)c5nc(NC(=O)CCCNC(=O)c6cc(NC(=O)c7nc(NC(=O)CCNC(=O)c8cc(NC(=O)c9nccn9C)cn8C)cn7C)cn6C)cn5C)cn4C)cn3C)ccn12", "note": "[Compound 170]", "EC50": "> 500"}, {"compound": "Cn1cc(CCn2c(CNCCOCCOCCNC(=O)CCNC(=O)c3nc(NC(=O)c4cc(NC(=O)CCNC(=O)c5nc(NC(=O)CCCNC(=O)c6cc(NC(=O)c7nc(NC(=O)CCNC(=O)c8cc(NC(=O)c9nccn9C)cn8C)cn7C)cn6C)cn5C)cn4C)cn3C)nc(-c3cnn(C)c3)c2-c2ccc(C#N)cc2)cn1", "note": "[Compound 171]", "EC50": "> 500"}, {"compound": "Cn1cc(CCn2c(CNCCOCCOCCOCCOCCOCCNC(=O)CCNC(=O)c3nc(NC(=O)c4cc(NC(=O)CCNC(=O)c5nc(NC(=O)CCCNC(=O)c6cc(NC(=O)c7nc(NC(=O)CCNC(=O)c8cc(NC(=O)c9nccn9C)cn8C)cn7C)cn6C)cn5C)cn4C)cn3C)nc(-c3cnn(C)c3)c2-c2ccc(C#N)cc2)cn1", "note": "[Compound 172]", "EC50": "> 500"}, {"compound": "CN(C)[C@@H]1CN(C2CCc3cccc(F)c32)C[C@H]1c1ccc(N2CCN(C(=O)COCCOCCOCCOCCOCCNC(=O)CCNC(=O)c3nc(NC(=O)c4cc(NC(=O)CCNC(=O)c5nc(NC(=O)CCCNC(=O)c6cc(NC(=O)c7nc(NC(=O)CCNC(=O)c8cc(NC(=O)c9nccn9C)cn8C)cn7C)cn6C)cn5C)cn4C)cn3C)CC2)cc1", "note": "(stereo partly drawn) [Compound 174]", "EC50": "> 500"}, {"compound": "CN(C)[C@@H]1CN(C2CCc3cccc(F)c32)C[C@H]1c1ccc(N2CCN(S(=O)(=O)CCOCCOCCOCCOCCOCCNC(=O)CCNC(=O)c3nc(NC(=O)c4cc(NC(=O)CCNC(=O)c5nc(NC(=O)CCCNC(=O)c6cc(NC(=O)c7nc(NC(=O)CCNC(=O)c8cc(NC(=O)c9nccn9C)cn8C)cn7C)cn6C)cn5C)cn4C)cn3C)CC2)cc1", "note": "(stereo partly drawn) [Compound 175]", "EC50": "100 to 500"}]}]}
